{"source": "patent US11384090B2", "about": "“Spiropyrrolidine derived antiviral agents” (priority 2020, dated 2022)", "data": [{"test_system": "229E human corona virus (hCoV)", "test": "229E live virus assay", "assay_type": "cell-based, hCoV-229E", "details": "Human coronavirus 229E, MRC5, 144 h, read-out: 229E EC50", "units": {"EC50": "µM"}, "values": [{"smiles": "CN(C(=O)c1cc2c(F)cc(F)cc2[nH]1)[C@@H](Cc1ccccc1)C(=O)N1C[C@]2(C[C@H]1C#N)C(=O)Nc1ccccc12", "note": "[Compound 81]", "EC50": "< 0.1"}]}, {"test_system": "229E human corona virus (hCoV)", "test": "229E live virus assay", "assay_type": "cell-based, hCoV-229E", "details": "MRC-5 cells, MOI 0.05, 6 days at 34° C., ATPlite readout, run in duplicate; read-out: 229E EC50", "units": {"EC50": "µM"}, "values": [{"smiles": "CC(C)C[C@H](NC(=O)OCc1ccccc1)C(=O)N1C[C@]2(C[C@H]1C#N)C(=O)Nc1ccccc12", "note": "[Compound 1]", "EC50": "0.1 to 1"}, {"smiles": "COc1cccc2[nH]c(C(=O)N[C@@H](CC(C)C)C(=O)N3C[C@]4(C[C@H]3C#N)C(=O)Nc3ccccc34)cc12", "note": "[Compound 11]", "EC50": "< 0.1"}, {"smiles": "COc1cccc2[nH]c(C(=O)N[C@H](CC(C)C)C(=O)N3C[C@]4(C[C@H]3C#N)C(=O)Nc3ccccc34)cc12", "note": "[Compound 12]", "EC50": "0.1 to 1"}, {"smiles": "COc1cccc2[nH]c(C(=O)N[C@H](CC(C)(C)C)C(=O)N3C[C@]4(C[C@H]3C#N)C(=O)Nc3ccccc34)cc12", "note": "[Compound 16]", "EC50": "0.1 to 1"}, {"smiles": "COc1cccc2[nH]c(C(=O)N[C@@H](CC3CCC3)C(=O)N3C[C@]4(C[C@H]3C#N)C(=O)Nc3ccccc34)cc12", "note": "[Compound 17]", "EC50": "< 0.1"}, {"smiles": "COc1cccc2[nH]c(C(=O)N[C@@H](CC(C)C)C(=O)N3C[C@]4(C[C@H]3C=O)C(=O)Nc3ccccc34)cc12", "note": "[Compound 23]", "EC50": "< 0.1"}, {"smiles": "COc1cccc2[nH]c(C(=O)N[C@@H](CC(C)C)C(=O)N3C[C@]4(C[C@H]3C(=O)C(=O)NC3CC3)C(=O)Nc3ccccc34)cc12", "note": "[Compound 31]", "EC50": "0.1 to 1"}, {"smiles": "CC(C)C[C@@H](C(=O)N1C[C@]2(C[C@H]1C#N)C(=O)Nc1ccccc12)N(C)C(=O)OCc1ccccc1", "note": "[Compound 39]", "EC50": "> 1"}, {"smiles": "CN(C(=O)OCc1ccccc1)[C@@H](CC1CCC1)C(=O)N1C[C@]2(C[C@H]1C#N)C(=O)Nc1ccccc12", "note": "[Compound 89]", "EC50": "0.1 to 1"}, {"smiles": "CN(C(=O)c1cc2c(F)cc(F)cc2[nH]1)[C@@H](CC1CCC1)C(=O)N1C[C@]2(C[C@H]1C#N)C(=O)Nc1ccccc12", "note": "[Compound 91]", "EC50": "< 0.1"}, {"smiles": "C=CCN(C(=O)OCc1ccccc1)[C@@H](CC(C)C)C(=O)N1C[C@]2(C[C@H]1C#N)C(=O)Nc1ccccc12", "note": "[Compound 96]", "EC50": "0.1 to 1"}, {"smiles": "CCCN(C(=O)OCc1ccccc1)[C@@H](CC(C)C)C(=O)N1C[C@]2(C[C@H]1C#N)C(=O)Nc1ccccc12", "note": "[Compound 97]", "EC50": "> 1"}, {"smiles": "CCCN(C(=O)c1cc2c(F)cccc2[nH]1)[C@@H](CC(C)C)C(=O)N1C[C@]2(C[C@H]1C#N)C(=O)Nc1ccccc12", "note": "[Compound 98]", "EC50": "0.1 to 1"}, {"smiles": "CC(C)CC[C@@H](C(=O)N1C[C@]2(C[C@H]1C#N)C(=O)Nc1ccccc12)N(C)C(=O)c1cc2c(F)cc(F)cc2[nH]1", "note": "[Compound 104]", "EC50": "< 0.1"}]}, {"target": "SARS-CoV-2 3CL-protease (Severe acute respiratory syndrome coronavirus 2 (2019-nCoV) (SARS-CoV-2), UniProt P0DTD1)", "test": "biochemical", "details": "read-out: FRET IC50", "units": {"IC50": "µM"}, "values": [{"smiles": "CC(C)(C)C[C@H](NC(=O)c1cc2c(F)cccc2[nH]1)C(=O)N1C[C@]2(C[C@H]1C#N)C(=O)Nc1ccccc12", "note": "[Compound 21]", "IC50": "< 0.1"}, {"smiles": "CC(C)C[C@@H](C(=O)N1C[C@]2(C[C@H]1C=O)C(=O)Nc1ccccc12)N(C)C(=O)OCc1ccccc1", "note": "[Compound 24]", "IC50": "0.1 to 1"}, {"smiles": "CN(C(=O)OCc1ccccc1)[C@@H](Cc1ccccc1)C(=O)N1C[C@]2(C[C@H]1C#N)C(=O)Nc1ccccc12", "note": "[Compound 41]", "IC50": "< 0.1"}]}]}
